Data published in patent US9234025B2, “Extracellular allosteric inhibitor binding domain from a tyrosine kinase receptor” (SANOFI, priority 2009, dated 2016).

Test system: FGFR2
Test: FRS2, Erk1/2 and PLCγ phosphorylation in FGFR2-transfected HEK293 cells (western blot)
Assay type: cell-based, human
Conditions: compound at 1 μM
Description: HEK293 cells were either transiently of stably transfected (using FuGENE 6, Roche) with hFGFR2IIIca or hFGFR2IIIca-Y328D cloned in pcDNA3 (Invitrogen). Stably transfected cells were grown in G418 (400 μg/ml) containing medium. Before stimulation, the cells were starved overnight in DMEM (0% serum), and pre-incubated with […] at the required concentration. The cells were subsequently stimulated with FGF2 (concentration between 0.5-10 ng/ml) for 5 min at 37° C. with or without SSR or SU5402 at 1 μM. After washing with ice-cold phosphate-buffered saline containing phosphatase inhibitors (Roche), cells were lysed in RIPA buffer (Tris 30 mM HCl pH 7.5, 150 mM NaCl, 1 mM EDTA, 1% triton-X, 0.5% w/v deoxycholate, containing phophatase and protease inhibitors as described by the manufacturer (Roche)). Cell lysates were centrifuged at 12,000 g for 10 min, and the supernatants were collected. Proteins were separated on Novex polyacrylamide gels (Invitrogen, Carlsbad, Calif.) and subsequently transferred onto Hybond ECL nitrocellulose membranes (Amersham Pharmacia). Following incubation with 5% non-fat milk powder in PBS, the membranes were incubated overnight at 4° C. with the following antibodies: phospho-ERK1/2 (CST:9101), phospho-FRS2 (CST:3861), phospho-PLCγ (CST:2821) and FGFR2 (F0300, Sigma).
In order to evaluate SSR effect on FGFR-controlled phosphor-signalling, HEK293 cells have been transfected with FGFR2 and the two main pathways following FGFR autophosphorylation, PLCγ and FRS2, have been studied by western blot in comparison with a published FGFR tyrosine kinase inhibitor SU5402 described to inhibit FGFR-dependent FRS2 and PLCγ cascades (Zhen et al., Oncogene 2007). In such cells, FGF induces FRS2, Erk1/2 and PLCγ phosphorylation. […] More generally, these differences in phosphorylation can be used as reporter to evaluate allosteric modulators.

Cc1c[nH]c(/C=C2\C(=O)Nc3ccccc32)c1CCC(=O)O [SU5402]
blocks: FGF-induced Erk1/2 phosphorylation | FGF-induced FRS2 phosphorylation | FGF-induced PLCγ phosphorylation
